One assay concerns the target T1, wild type FGFR-4 (Homo sapiens, UniProt P22455).
T1 construct: purchased Carna Biosciences, Inc
Nature of the assay: FGFR-4 wild type assay at Km (Caliper mobility shift). Format: biochemical. Conditions: for Ratio FGFR1/FGFR4: [IC50 for FGFR1]/[IC50 for FGFR4]; for IC50: 400 uM ATP, 25 C, 90 minutes, read-out: FGFR4 IC50. The procedure: (§1) In order to assess the activity of chemical compounds against the relevant kinase of interest, the Caliper LifeSciences electrophoretic mobility shift technology platform is utilized. Fluorescently labeled substrate peptide is incubated in the presence dosed levels of compounds, a set concentration of kinase and of ATP, so that a reflective proportion of the peptide is phosphorylated. At the end of the reaction, the mix of phosphorylated (product) and non-phosphorylated (substrate) peptides are passed through the microfluidic system of the Caliper LabChip® EZ Reader II, under an applied potential difference. The presence of the phosphate group on the product peptide provides a difference in mass and charge between the product peptide and the substrate peptide, resulting in a separation of the substrate and product pools in the sample. As the pools pass the LEDS within the instrument, these pools are detected and resolved as separate peaks. The ratio between these peaks therefore reflects the activity of the chemical matter at that concentration in that well, under those conditions.
The reaction was stopped by the addition of 70 ul of Stop buffer (100 mM HEPES pH 7.5, 0.015% Brij 35, 35 mM EDTA and 0.2% of Coating Reagent 3 (Caliper Lifesciences)). The plate was then read on a Caliper LabChip® EZ Reader II (protocol settings: —1.9 psi, upstream voltage—700, downstream voltage—3000, post sample sip 35 s).

Another assay concerns the target T2, wild type FGFR-1 (Homo sapiens, UniProt P11362).
T2 construct: purchased Carna Biosciences, Inc
Description: FGFR-1 wild type assay at Km (Caliper mobility shift). The settings on record: 400 uM ATP, 25 C, 90 minutes; read-out: FGFR1 IC50. It counts as biochemical. The procedure: as §1
The reaction was stopped by the addition of 70 ul of Stop buffer (100 mM HEPES pH 7.5, 0.015% Brij 35, 35 mM EDTA and 0.2% of Coating Reagent 3 (Caliper Lifesciences)). The plate was then read on a Caliper EZReader 2 (protocol settings: —1.9 psi, upstream voltage—700, downstream voltage—3000, post sample sip 35 s).

The text below walks through data of patent publication US20140187559A1, “INHIBITORS OF THE FIBROBLAST GROWTH FACTOR RECEPTOR” (BLUEPRINT MEDICINES CORPORATION, priority 2012, published 2014).

Where only a bound is given, the exact number is not on record here.

T1 sequence (P22455 22-802): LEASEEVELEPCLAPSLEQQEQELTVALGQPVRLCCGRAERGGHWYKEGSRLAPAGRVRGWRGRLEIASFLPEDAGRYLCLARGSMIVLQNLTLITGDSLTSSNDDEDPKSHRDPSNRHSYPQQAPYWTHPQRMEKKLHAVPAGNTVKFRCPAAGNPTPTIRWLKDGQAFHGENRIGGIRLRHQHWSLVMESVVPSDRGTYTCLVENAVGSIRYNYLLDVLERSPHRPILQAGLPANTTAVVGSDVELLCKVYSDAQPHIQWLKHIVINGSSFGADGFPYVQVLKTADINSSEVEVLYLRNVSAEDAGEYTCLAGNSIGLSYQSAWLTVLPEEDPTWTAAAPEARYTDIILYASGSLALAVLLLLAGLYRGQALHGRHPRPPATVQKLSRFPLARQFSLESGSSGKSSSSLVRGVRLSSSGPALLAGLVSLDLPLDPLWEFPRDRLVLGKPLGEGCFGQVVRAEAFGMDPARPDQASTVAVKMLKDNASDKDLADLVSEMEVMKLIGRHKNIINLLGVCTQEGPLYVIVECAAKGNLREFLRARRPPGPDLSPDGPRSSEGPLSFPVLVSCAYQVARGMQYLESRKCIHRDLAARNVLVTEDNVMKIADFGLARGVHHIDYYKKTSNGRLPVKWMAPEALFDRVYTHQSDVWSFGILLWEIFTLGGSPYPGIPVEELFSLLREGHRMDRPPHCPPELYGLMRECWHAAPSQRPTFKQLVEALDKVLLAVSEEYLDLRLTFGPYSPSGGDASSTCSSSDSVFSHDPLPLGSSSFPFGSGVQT
T2 sequence (P11362 22-822): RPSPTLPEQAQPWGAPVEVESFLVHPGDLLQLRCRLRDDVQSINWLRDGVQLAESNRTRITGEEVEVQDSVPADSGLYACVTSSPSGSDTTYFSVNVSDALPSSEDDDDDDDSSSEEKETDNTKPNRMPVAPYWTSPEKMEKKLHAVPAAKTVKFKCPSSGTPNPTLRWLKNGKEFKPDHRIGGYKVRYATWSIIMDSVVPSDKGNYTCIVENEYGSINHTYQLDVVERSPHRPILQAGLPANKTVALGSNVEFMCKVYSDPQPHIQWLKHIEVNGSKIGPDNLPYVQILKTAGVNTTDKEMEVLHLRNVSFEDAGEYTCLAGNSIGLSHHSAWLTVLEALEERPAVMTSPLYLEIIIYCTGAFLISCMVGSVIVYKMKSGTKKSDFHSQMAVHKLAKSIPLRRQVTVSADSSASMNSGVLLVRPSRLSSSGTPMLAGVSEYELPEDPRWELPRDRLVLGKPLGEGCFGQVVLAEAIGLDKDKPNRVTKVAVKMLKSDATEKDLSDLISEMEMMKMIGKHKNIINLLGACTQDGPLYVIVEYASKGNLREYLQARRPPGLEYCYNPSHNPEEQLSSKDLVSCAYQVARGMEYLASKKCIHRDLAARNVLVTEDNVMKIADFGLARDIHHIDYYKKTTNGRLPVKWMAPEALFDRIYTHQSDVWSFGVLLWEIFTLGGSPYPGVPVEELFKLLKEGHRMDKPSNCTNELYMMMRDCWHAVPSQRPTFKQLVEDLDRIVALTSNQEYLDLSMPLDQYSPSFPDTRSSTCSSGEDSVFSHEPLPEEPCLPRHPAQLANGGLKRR

As for `C=CC(=O)N(C)c1ncc2cc(-c3cc(OC)cc(OC)c3)ccc2n1` [COMPOUND 1], at wild type FGFR-4, the “Ratio FGFR1/FGFR4” value was “C (the ratio is ≧100 and <200)”.

In general, IC50 refers to the concentration needed to halve the response being measured. Consider `C=CC(=O)N(C)c1ncc2cc(-c3c(Cl)cccc3Cl)ccc2n1` [COMPOUND 2], for which, on wild type FGFR-4, the IC50 fell in the range of 100 to 1000 nM; the “Ratio FGFR1/FGFR4” value is “D (the ratio is ≧50 and <100)”.

On to `C=CC(=O)N(C)c1ncc2cc(-c3cc(OC)cc(OC)c3)c(=O)n(C)c2n1` [COMPOUND 3], for which, on wild type FGFR-4, the IC50 lay within 10 to 100 nM and the “Ratio FGFR1/FGFR4” value is on record as “A (the ratio is >500)”. For the same compound, on wild type FGFR-1, the IC50 is more than 1000 nM.

On to `C=CC(=O)N(C)c1ncc2c(n1)N(C)C(=O)N(c1cc(OC)cc(OC)c1)C2` [COMPOUND 5], for which the half-inhibitory concentration (IC50) on wild type FGFR-4 lay in the range of 10 to 100 nM.

`C=CC(=O)Nc1cccc(C)c1Nc1ncc(C#Cc2cc(OC)cc(OC)c2)cn1` [COMPOUND 6, N-(2-((5-((3,5-dimethoxyphenyl)ethynyl)pyrimidin-2-yl)amino)-3-methylphenyl)acrylamide]: on wild type FGFR-4, the IC50 is 100 to 1000 nM.

In the case of `C=CC(=O)Nc1cccc(C)c1Nc1ncc2cc(-c3cc(C(N)=O)ccc3F)ccc2n1` [COMPOUND 9], at wild type FGFR-4, the IC50 lay in the range of 100 to 1000 nM; the “Ratio FGFR1/FGFR4” value is “D (the ratio is ≧50 and <100)”.

Consider `C=CC(=O)Nc1cccc(C)c1Nc1ncc2cc(-c3cc(OC)cc(OC)c3)cnc2n1` [COMPOUND 10, N-(2-((6-(3,5-dimethoxyphenyl)pyrido[2,3-d]pyrimidin-2-yl)amino)-3-methylphenyl)acrylamide], for which the “Ratio FGFR1/FGFR4” value at wild type FGFR-4 is “E (the ratio is ≧10 and <50)”.

Consider `C=CC(=O)Nc1ccccc1Nc1nccc(N2CCCC(NS(=O)(=O)CCC)C2)n1` (stereo not drawn) [COMPOUND 11, N-(2-((4-(3-(propylsulfonamido)piperidin-1-yl)pyrimidin-2-yl)amino)phenyl)acrylamide], for which the concentration for half-maximal inhibition (IC50) at wild type FGFR-4 is 100 to 1000 nM.

`C=CC(=O)Nc1cccc(C)c1Nc1ncc2cc(-c3c(Cl)cccc3Cl)ccc2n1` [COMPOUND 13]: at wild type FGFR-4, the concentration for half-maximal inhibition (IC50) was 10 to 100 nM; the “Ratio FGFR1/FGFR4” value was “D (the ratio is ≧50 and <100)”.

Turning to `C=CC(=O)Nc1ccccc1Nc1cc2c(cn1)cc(-c1cc(OC)cc(OC)c1)c(=O)n2C` [COMPOUND 15], at wild type FGFR-4, the IC50 was in the range of 10 to 100 nM; the “Ratio FGFR1/FGFR4” value is “B (the ratio is ≧200 and <500)”.

For the compound `C=CC(=O)Nc1cccc(C)c1Nc1ncc2cc(-c3c(Cl)ccc(OC)c3F)ccc2n1` [COMPOUND 17A], on wild type FGFR-4, the IC50 was 10 to 100 nM; the “Ratio FGFR1/FGFR4” value was “E (the ratio is ≧10 and <50)”.

Consider `C=CC(=O)Nc1cccc(Cl)c1Nc1ncc2cc(-c3cc(C(N)=O)ccc3C)ccc2n1` [COMPOUND 17], for which, at wild type FGFR-4, the IC50 was in the range of 10 to 100 nM; the “Ratio FGFR1/FGFR4” value was “B (the ratio is ≧200 and <500)”.

Turning to `C#CC(=O)NCc1cccn2c(-c3cc(NC(=O)NCC(F)(F)F)cc(OC(C)C)c3)cnc12` [COMPOUND 20, N-((3-(3-isopropoxy-5-(3-(2,2,2-trifluoroethyl)ureido)phenyl)imidazo[1,2-a]pyridin-8-yl)methyl)propiolamide], the IC50 on wild type FGFR-4 is 10 to 100 nM.

Take `C=CC(=O)Nc1ccccc1-c1ccn2c(-c3cccc(NC(=O)NCC(F)(F)F)c3)cnc2c1` [COMPOUND 21, N-(2-(3-(3-(3-(2,2,2-trifluoroethyl)ureido)phenyl)imidazo[1,2-a]pyridin-7-yl)phenyl)acrylamide]: at wild type FGFR-4, the IC50 lay within 100 to 1000 nM; the “Ratio FGFR1/FGFR4” value is “B (the ratio is ≧200 and <500)”.

For `C=CC(=O)Nc1cccc(C)c1Nc1ncc2cc(-c3c(Cl)cccc3Cl)c(=O)n(C)c2n1` [COMPOUND 22], on wild type FGFR-4, the IC50 is 10 to 100 nM; the “Ratio FGFR1/FGFR4” value was “B (the ratio is ≧200 and <500)”.

Regarding `C=CC(=O)Nc1cccc(C)c1Nc1ncc(C#Cc2c(Cl)c(OC)cc(OC)c2Cl)cn1` [COMPOUND 24, N-(2-((5-((2,6-dichloro-3,5-dimethoxyphenyl)ethynyl)pyrimidin-2-yl)amino)-3-methylphenyl)acrylamide], the IC50 at wild type FGFR-4 was in the range of 10 to 100 nM.

Regarding `C=CC(=O)Nc1cccc(C)c1Oc1ncc2cc(-c3c(Cl)c(OC)cc(OC)c3Cl)ccc2n1` [COMPOUND 25A], at wild type FGFR-4, the IC50 lay within 100 to 1000 nM; the “Ratio FGFR1/FGFR4” value is “D (the ratio is ≧50 and <100)”.

In the case of `C=CC(=O)Nc1cccc(C)c1Nc1ncc2cc(-c3c(Cl)c(OC)cc(OC)c3Cl)cnc2n1` [COMPOUND 26, N-(2-((6-(2,6-dichloro-3,5-dimethoxyphenyl)pyrido[2,3-d]pyrimidin-2-yl)amino)-3-methylphenyl)acrylamide], the IC50 on wild type FGFR-1 was 100 to 1000 nM.

For the compound `C=C(C)C(=O)Nc1cccc(C)c1Nc1ncc2cc(-c3c(Cl)c(OC)cc(OC)c3Cl)ccc2n1` [COMPOUND 29], the IC50 at wild type FGFR-1 fell in the range of 100 to 1000 nM.

For the compound `C=CC(=O)Nc1cccc(OC)c1Nc1ncc2cc(-c3c(Cl)c(OC)cc(OC)c3Cl)ccc2n1` [COMPOUND 30, N-(2-((6-(2,6-dichloro-3,5-dimethoxyphenyl)quinazolin-2-yl)amino)-3-methoxyphenyl)acrylamide], the IC50 on wild type FGFR-1 is 100 to 1000 nM.

For the compound `C=CC(=O)Nc1cc(F)cc(C)c1Nc1ncc2cc(-c3c(Cl)c(OC)cc(OC)c3Cl)ccc2n1` [COMPOUND 32], the “Ratio FGFR1/FGFR4” value on wild type FGFR-4 was “C (the ratio is ≧100 and <200)”.

Take `C=CC(=O)Nc1ccc(F)c(C)c1Nc1ncc2cc(-c3c(Cl)c(OC)cc(OC)c3Cl)ccc2n1` [COMPOUND 33]: the IC50 at wild type FGFR-4 fell in the range of 10 to 100 nM.

On to `C=CC(=O)Nc1cccc(C)c1Nc1ncc2cc(-c3c(Cl)c(OC)cc(OC)c3Cl)cc(F)c2n1` [COMPOUND 34, N-(2-((6-(2,6-dichloro-3,5-dimethoxyphenyl)-8-fluoroquinazolin-2-yl)amino)-3-methylphenyl)acrylamide], for which, at wild type FGFR-1, the IC50 is 100 to 1000 nM.

`C=CC(=O)Nc1cc(F)cc(F)c1Nc1ncc2cc(-c3c(Cl)c(OC)cc(OC)c3Cl)ccc2n1` [COMPOUND 36]: at wild type FGFR-4, the IC50 lay within 100 to 1000 nM; the “Ratio FGFR1/FGFR4” value is “B (the ratio is ≧200 and <500)”.

Consider `C=CC(=O)Nc1cccc(C)c1Nc1cc2c(cn1)cc(-c1c(Cl)c(OC)cc(OC)c1Cl)c(=O)n2C` [COMPOUND 39], for which the “Ratio FGFR1/FGFR4” value on wild type FGFR-4 is “E (the ratio is ≧10 and <50)”.

For `C=CC(=O)Nc1ccccc1Nc1ncc2cc(-c3c(Cl)c(OC)cc(OC)c3Cl)c(=O)n(C)c2c1C` [COMPOUND 40, N-(2-((3-(2,6-dichloro-3,5-dimethoxyphenyl)-1,8-dimethyl-2-oxo-1,2-dihydro-1,6-naphthyridin-7-yl)amino)phenyl)acrylamide], at wild type FGFR-4, the IC50 was 100 to 1000 nM.

For `C=CC(=O)Nc1cccc(C)c1Nc1ncc2cc(-c3c(Cl)c(OC)cc(OC)c3Cl)cc(OC)c2n1` [COMPOUND 41], on wild type FGFR-1, the IC50 lay in the range of 100 to 1000 nM.

For the compound `C=CC(=O)Nc1cccc(C)c1Nc1ncc2cc(-c3c(Cl)c(OC)cc(OC)c3Cl)c(OC)cc2n1` [COMPOUND 42, N-(2-((6-(2,6-dichloro-3,5-dimethoxyphenyl)-7-methoxyquinazolin-2-yl)amino)-3-methylphenyl)acrylamide], on wild type FGFR-1, the IC50 fell in the range of 10 to 100 nM.

Consider `C=CC(=O)Nc1cccc(C)c1Nc1ncc2cc(-c3c(Cl)c(OC)cc(OC)c3Cl)c(=O)n(C)c2n1` [COMPOUND 43, N-(2-((6-(2,6-dichloro-3,5-dimethoxyphenyl)-8-methyl-7-oxo-7,8-dihydropyrido[2,3-d]pyrimidin-2-yl)amino)-3-methylphenyl)acrylamide], for which the IC50 on wild type FGFR-1 fell in the range of 100 to 1000 nM.

Turning to `C=CC(=O)Nc1ccccc1Nc1cc2nc(NC(=O)NC(C)(C)C)c(-c3cc(OC)cc(OC)c3)cc2cn1` [COMPOUND 44], on wild type FGFR-4, the IC50 lay in the range of 100 to 1000 nM; the “Ratio FGFR1/FGFR4” value is “E (the ratio is ≧10 and <50)”.

Consider `C=CC(=O)Nc1cccc(C)c1Nc1ncc2nc(-c3c(Cl)c(OC)cc(OC)c3Cl)c(=O)n(C)c2n1` [COMPOUND 45, N-(2-((6-(2,6-dichloro-3,5-dimethoxyphenyl)-8-methyl-7-oxo-7,8-dihydropteridin-2-yl)amino)-3-methylphenyl)acrylamide], for which the “Ratio FGFR1/FGFR4” value on wild type FGFR-4 was “E (the ratio is ≧10 and <50)”.

As to `C=CC(=O)Nc1cc(Cl)cc(C)c1Nc1ncc2cc(-c3c(Cl)c(OC)cc(OC)c3Cl)ccc2n1` [COMPOUND 49], the IC50 on wild type FGFR-4 lay within 10 to 100 nM.

Regarding `C=CC(=O)Nc1ccccc1Nc1ncc(Cl)c(N2CCN(C(=O)Nc3cccc(C(F)(F)F)c3)CC2)n1` [COMPOUND 50, 4-(2-((2-acrylamidophenyl)amino)-5-chloropyrimidin-4-yl)-N-(3-(trifluoromethyl)phenyl)piperazine-1-carboxamide], the IC50 on wild type FGFR-4 lay within 100 to 1000 nM.

Regarding `C=CC(=O)Nc1cc(C(=O)NC2CCN(C)CC2)ccc1Nc1ncc(C)c(N2CCN(C(=O)Nc3ccc(C#N)cc3)CC2)n1` [COMPOUND 54, 4-(2-((2-acrylamido-4-((1-methylpiperidin-4-yl)carbamoyl)phenyl)amino)-5-methylpyrimidin-4-yl)-N-(4-cyanophenyl)piperazine-1-carboxamide], on wild type FGFR-4, the IC50 was 10 to 100 nM.

Regarding `C=CC(=O)N(CCCCN(CC)CC)c1ncc2cc(-c3c(Cl)c(OC)cc(OC)c3Cl)c(NC(=O)NC(C)(C)C)nc2n1` [COMPOUND 55, N-(7-(3-(tert-butyl)ureido)-6-(2,6-dichloro-3,5-dimethoxyphenyl)pyrido[2,3-d]pyrimidin-2-yl)-N-(4-(diethylamino)butyl)acrylamide], the IC50 at wild type FGFR-1 fell in the range of 10 to 100 nM.
